For the first assay, the target named is T1, OX2 (Homo sapiens, UniProt O43614).
T1 sequence (O43614 1-444): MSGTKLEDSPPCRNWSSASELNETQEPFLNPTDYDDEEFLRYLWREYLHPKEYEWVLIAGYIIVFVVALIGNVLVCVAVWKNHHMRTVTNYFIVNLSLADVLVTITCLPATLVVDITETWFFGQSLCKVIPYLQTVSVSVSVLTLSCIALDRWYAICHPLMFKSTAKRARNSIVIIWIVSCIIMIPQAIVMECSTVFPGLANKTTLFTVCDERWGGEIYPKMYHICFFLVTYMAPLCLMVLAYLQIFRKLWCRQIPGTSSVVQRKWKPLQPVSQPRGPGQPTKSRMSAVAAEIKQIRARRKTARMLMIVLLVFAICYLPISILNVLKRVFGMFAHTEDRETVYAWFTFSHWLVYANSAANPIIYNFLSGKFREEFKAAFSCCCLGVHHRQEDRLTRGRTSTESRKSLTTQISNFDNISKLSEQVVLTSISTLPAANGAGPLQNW
Description: Measurement of orexin receptor-binding ability ([125I]-OX-A, cell membranes, OX2). The conditions noted are these: OX2 (IC50) nM, membranes of recombinant CHO cells expressing OX2, 0.2 nM [125I]-OX-A. Also noted: expressed in transfected cells; host or cells: CHO cells (membrane preparation). The protocol: 1. Measurement of Orexin Receptor-Binding Ability
The assay was carried out using a 96-well Wheat Germ Agglutinin Flash Plate (PerkinElmer). The volume in a single assay well was 100 ul, and the composition of the reaction solution was as follows:
25 mM HEPES (pH 7.5), 1 mM CaCl2, 4.5 mM MgCl2, 0.5% BSA (bovine serum albumin), 0.1% sodium azide, 0.05% Tween-20, and 0.2% DMSO.
Cell membranes were prepared from recombinant CHO cells that expressed OX2 or OX1. The cell membranes were used in an amount of 5 μg protein/assay. […] Finally, the radioactivity of each well was measured using a scintillation counter (TopCount, PerkinElmer).
Turning to `Cc1ncc(OC[C@@]2(c3cccc(F)c3)C[C@H]2C(=O)Nc2cccc(F)c2)c(C)n1` [Example 83], the IC50 is 14 nM.
The same measure, in the same setting: next, `Cc1ncc(OC[C@@]2(c3ccc(F)cc3)C[C@H]2C(=O)Nc2cccc(F)c2)c(C)n1` [Example 107]: 41 nM.
As for `Cc1ncc(OC[C@@]2(c3cccc(C#N)c3)C[C@H]2C(=O)Nc2ccc(F)cn2)c(C)n1` [Example 116], the IC50 turned out to be 14 nM.
The same measure, in the same setting: next, `COc1cccc([C@]2(COc3cnc(C)nc3C)C[C@H]2C(=O)Nc2ccc(F)cc2)c1` [Example 187]: 16 nM.

The assay is the same for the next values; noted with them: membranes of recombinant CHO cells expressing OX2, 0.2 nM [125I]-OX-A; read-out: OX2 (IC50).
As to `Cc1ncc(OC[C@@]2(c3ccccc3)C[C@H]2C(=O)Nc2ccnc(C(F)(F)F)c2)c(C)n1` [Example 44], the IC50 was 26 nM.
For the molecule `Cc1ncc(OC[C@@]2(c3ccc(F)cc3)C[C@H]2C(=O)Nc2ccc(F)c(F)c2)c(C)n1` [Example 106], the half-inhibitory concentration (IC50) was determined as 19 nM.
The same measure, in the same setting: next, `Cc1ncc(OC[C@@]2(c3cccc(C#N)c3)C[C@H]2C(=O)Nc2ccc(F)cc2)c(C)n1` [Example 115]: 21 nM; `CCc1nc(C)ncc1OC[C@@]1(c2ccccc2)C[C@H]1C(=O)Nc1cncc(OC)c1` [Example 123]: 29 nM.
For the molecule `CCc1nc(C)ncc1OC[C@@]1(c2ccccc2)C[C@H]1C(=O)Nc1ccc(F)cc1` [Example 124], the half-inhibitory concentration (IC50) is 31 nM.
Consider `Cc1ncc(OC[C@@]2(c3cc(F)cc(F)c3)C[C@H]2C(=O)Nc2cc(F)ccc2F)c(C)n1` [Example 136], for which the IC50 stood at 15 nM.
Consider `COCc1nc(C)ncc1OC[C@@]1(c2ccccc2)C[C@H]1C(=O)Nc1cc(Cl)ccn1` [Example 143], for which the IC50 came to 14 nM.
Same read-out and setting: next, `COCc1nc(C)ncc1OC[C@@]1(c2ccccc2)C[C@H]1C(=O)Nc1ccc(C(F)(F)F)cn1` [Example 144]: 12 nM; `COCc1nc(C)ncc1OC[C@@]1(c2ccccc2)C[C@H]1C(=O)Nc1cc(C)c(F)cn1` [Example 145, (1R,2S)-N-(5-fluoro-4-methylpyridin-2-yl)-2-{[(4-methoxymethyl-2-methylpyrimidin-5-yl)oxy]methyl}-2-phenylcyclopropanecarboxamide]: 9 nM; `COCc1nc(C)ncc1OC[C@@]1(c2ccccc2)C[C@H]1C(=O)Nc1ccc(F)cc1F` [Example 146]: 37 nM.
Consider `COCc1nc(C)ncc1OC[C@@]1(c2ccccc2)C[C@H]1C(=O)Nc1cc(F)ccc1F` [Example 147], for which the IC50 came to 69 nM.
Still for that read-out and setting: next, `COCc1nc(C)ncc1OC[C@@]1(c2ccccc2)C[C@H]1C(=O)Nc1cccc(F)c1` [Example 148]: 20 nM; `COCc1nc(C)ncc1OC[C@@]1(c2ccccc2)C[C@H]1C(=O)Nc1ccc(F)cc1` [Example 149, (1R,2S)-N-(4-fluorophenyl)-2-{[(4-methoxymethyl-2-methylpyrimidin-5-yl)oxy]methyl}-2-phenylcyclopropanecarboxamide]: 10 nM; `COCc1nc(C)ncc1OC[C@@]1(c2ccccc2)C[C@H]1C(=O)Nc1ccc(F)c(F)c1` [Example 150, (1R,2S)-N-(3,4-difluorophenyl)-2-{[(4-methoxymethyl-2-methylpyrimidin-5-yl)oxy]methyl}-2-phenylcyclopropanecarboxamide]: 10 nM.
In the case of `Cc1ncc(OC[C@@]2(c3ccc(F)c(F)c3)C[C@H]2C(=O)Nc2ccc(F)c(F)c2)c(C)n1` [Example 170, (1R,2S)-N,2-bis(3,4-difluorophenyl)-2-{[(2,4-dimethylpyrimidin-5-yl)oxy]methyl}cyclopropanecarboxamide], the IC50 came out at 7 nM.
Still for that read-out and setting: next, `Cc1ncc(OC[C@@]2(c3ccc(F)c(F)c3)C[C@H]2C(=O)Nc2cc(F)ccc2F)c(C)n1` [Example 172]: 28 nM.
Consider `COc1cccc([C@]2(COc3cnc(C)nc3C)C[C@H]2C(=O)Nc2ccccn2)c1` [Example 188], for which the IC50 turned out to be 61 nM.

Usually IC50 stands for the concentration at which inhibition is half-maximal.

Values taken from patent US8268848B2, “Cyclopropane compound” (Eisai R&D Management Co., Ltd., priority 2010, dated 2012).
